Measurements taken from patent US4001325A, “α-Chloroacetanilide selective herbicides” (Diamond Shamrock Corporation, priority 1973, dated 1977).

Experiments:
[1] = tested on: Soybeans; assay: Example 18 phytotoxic effects on crop stands in different soils; type: in vivo, soybean
Experimental: (§1) To further illustrate the herbicidal activity of compounds of this invention in different types of soil as would be encountered in different crop growing localities, a preemergence herbicide test is conducted generally as outlined previously herein. Two light sandy soils are employed containing 0.7% and 1.8% organic matter (O.M.), respectively, along with two loam-type, heavier soils containing either 2.0% or 5-5.5% organic matter (O.M.).
(§2) The test plots are all sprayed uniformly with formulations of the test compounds providing 2.0, 1.0, 0.5, and 0.25 pound of active chemical per acre (lb/A).
(§3) Prior to treatment, the soil plots are sown to field corn, soybean, and grain sorghum crops and seeds of barnyard-grass and yellow foxtail.
(§4) Three weeks after planting, the percent control of plant growth is rated from 0% (no injury) to 100% (total destruction). The results obtained are as follows:
(§5) Phytotoxic effects on the crop stands are similarly rated with the following results: […]

[2] = tested on: Soybeans; assay: Field preemergence test, phytotoxic effects on crop; type: in vivo, var. Davis
Source text: (§6) Test plots of fertilized, light sandy soil containing 0.7% organic matter are sprayed uniformly with aqueous suspensions prepared from emulsifiable concentrates containing 12%, by weight, of the test chemicals diluted to provide dosage rates of the test compounds corresponding to 2.0, 1.0, 0.5, and 0.25 pound per acre (lb/A). The plots are then sown with seeds of the following crop plants: sweet corn, cotton (Coker 413) and soybeans, var. Davis. Seeds of the following weed plants are planted: redroot pigweed, prickly sida, common lambsquarter, goosegrass and giant foxtail.
(§7) Three to four weeks after planting, percent control (plant kill) of the test plants is estimated, from a rating of 0 which denotes no injury to the plant up to 100 which denotes complete destruction. The herbicidal action of the test compounds obtained on the weed species is as follows:
(§8) Phytotoxic effects observed on the crop species is estimated with results as follows: […]

[3] = tested on: Yellow Foxtail; assay: Example 18 preemergence herbicide test in different soils, % control; type: in vivo; settings: three weeks
Experimental: as §1, §2, §3
Three weeks after planting, the percent control of plant growth is rated from 0% (no injury) to 100% (total destruction).

[4] = tested on: corn; assay: Example 17 damage to corn crop; type: in vivo; settings: 2 lb/A
Source text: (§9) This example illustrates the selective herbicidal activity of two of the presently preferred compounds of this invention against various weed species in a corn crop.
(§10) Plots of light sandy soil, cleared of all weeds, are uniformly treated with aqueous dispersions prepared from an emulsifiable concentrate containing 2- 4 pounds of active ingredient per gallon. Diluted aqueous dispersions are applied as surface treatments at 2.0, 1.0, 0.5, and 0.25 pound of active ingredient per acre (lb/A).
(§11) The treated test plots are sown to corn and with seeds of the following weed species:
(§12) Three to four weeks after planting, the degree of damage to both the corn stands and the weed plants is assessed from a rating of 0% (no injury) to 100% (complete destruction).

[5] = tested on: Corn; assay: Example 18 phytotoxic effects on crop stands in different soils; type: in vivo, field corn
Experimental: as §1, §2, §3, §4, §5

[6] = tested on: Corn; assay: Field preemergence test, phytotoxic effects on crop; type: in vivo, sweet corn
Source text: as §6, §7, §8

[7] = tested on: Goosegrass; assay: Example 17 selective herbicidal activity in corn crop, weed kill; type: in vivo, Eleusine indica; settings: 3-4 weeks after planting
Source text: as §9, §10, §11, §12

[8] = tested on: Yellow Foxtail; assay: as above; type: in vivo, Setaria lutescens; settings: Setaria, 3-4 weeks after planting
Source text: as §9, §10, §11, §12

[9] = tested on: Common Lambsquarter; assay: Field preemergence test, weed control; type: in vivo; settings: 3-4 weeks after planting
Source text: as §6
(§13) Three to four weeks after planting, percent control (plant kill) of the test plants is estimated, from a rating of 0 which denotes no injury to the plant up to 100 which denotes complete destruction. The herbicidal action of the test compounds obtained on the weed species is as follows: […]

[10] = tested on: Goosegrass; assay: Field preemergence test, weed control; type: in vivo; settings: 3-4 weeks after planting
Source text: as §6, §13

[11] = tested on: Redroot Pigweed; assay: Field preemergence test, weed control; type: in vivo; settings: 3-4 weeks after planting
Source text: as §6, §13

[12] = tested on: Prickly Sida; assay: Field preemergence test, weed control; type: in vivo; settings: 3-4 weeks after planting
Source text: as §6, §13

[13] = tested on: Giant Foxtail; assay: Field preemergence test, weed control; type: in vivo; settings: 3-4 weeks after planting
Source text: as §6, §13

[14] = tested on: Barnyardgrass; assay: Example 17 selective herbicidal activity in corn crop, weed kill; type: in vivo, Echinochloa crusgalli; settings: Echinochloa crus-galli, 3-4 weeks after planting
Source text: as §9, §10, §11, §12

[15] = 0.5 lb/A, Heavy Soil 5-5.5% O.M.
[16] = 0.5 lb/A, Medium Soil 2.0% O.M.
[17] = 1.0 lb/A, Heavy Soil 5-5.5% O.M.
[18] = 1.0 lb/A, Medium Soil 2.0% O.M.
[19] = 2.0 lb/A, Heavy Soil 5-5.5% O.M.
[20] = 2.0 lb/A, Medium Soil 2.0% O.M.

C#CCN(C(=O)CCl)c1c(CC)cccc1CC [Example 9, 2-Chloro-2',6'-diethyl-N-propargylacetanilide]
no phytotoxic effects: phytotoxic effects on corn [4]
10%: % Phytotoxicity, Corn [5, 19] | % Phytotoxicity, Corn [5, 20]
90%: % Control, Yellow Foxtail [3, 15] | % Control, Yellow Foxtail [3, 16]
70%: % Control, Yellow Foxtail ([3]; 1.0 lb/A, Sand 0.7% O.M.)
42%: % Weed Control, Prickly Sida ([12]; 1.0 lb/A) | % Weed Control, Giant Foxtail ([13]; 0.25 lb/A)
50%: % Control, Yellow Foxtail ([3]; 0.5 lb/A, Sand 0.7% O.M.)
97%: % Weed Control, Giant Foxtail ([13]; 1.0 lb/A)
93%: % Weed Control, Redroot Pigweed ([11]; 0.5 lb/A) | % Weed Control, Prickly Sida ([12]; 2.0 lb/A)
100%: % Control, Yellow Foxtail [3, 17] | % Control, Yellow Foxtail [3, 18] | % Control, Yellow Foxtail [3, 19] | % Control, Yellow Foxtail [3, 20] | % Control, Yellow Foxtail ([3]; 2.0 lb/A, Sand 0.7% O.M.) | % Control, Yellow Foxtail ([3]; 2.0 lb/A, Sand 1.8% O.M.) | % Weed Kill, Goosegrass ([7]; 0.5 lb/A) | % Weed Kill, Goosegrass ([7]; 1.0 lb/A) | % Weed Kill, Goosegrass ([7]; 2.0 lb/A) | mortality at 1120.85 g/ha ([8]; 1.0 lb/A) | mortality at 2241.7 g/ha ([8]; 2.0 lb/A) | % Weed Control, Common Lambsquarter ([9]; 0.5 lb/A) | % Weed Control, Common Lambsquarter ([9]; 1.0 lb/A) | % Weed Control, Common Lambsquarter ([9]; 2.0 lb/A) | % Weed Control, Goosegrass ([10]; 1.0 lb/A) | % Weed Control, Goosegrass ([10]; 2.0 lb/A) | % Weed Control, Redroot Pigweed ([11]; 1.0 lb/A) | % Weed Control, Redroot Pigweed ([11]; 2.0 lb/A) | % Weed Control, Giant Foxtail ([13]; 2.0 lb/A) | mortality at 2241.7 g/ha ([14]; 2.0 lb/A)
87%: % Weed Kill, Goosegrass ([7]; 0.25 lb/A)
95%: mortality at 560.425 g/ha ([8]; 0.5 lb/A) | % Weed Control, Common Lambsquarter ([9]; 0.25 lb/A)
3%: % Crop Kill, Corn ([6]; 2.0 lb/A)
75%: % Weed Control, Redroot Pigweed ([11]; 0.25 lb/A)
94%: % Weed Control, Goosegrass ([10]; 0.25 lb/A)
98%: % Weed Control, Goosegrass ([10]; 0.5 lb/A) | mortality at 560.425 g/ha ([14]; 0.5 lb/A) | mortality at 1120.85 g/ha ([14]; 1.0 lb/A)
85%: % Control, Yellow Foxtail ([3]; 0.5 lb/A, Sand 1.8% O.M.) | % Weed Control, Giant Foxtail ([13]; 0.5 lb/A)
68%: mortality at 280.212 g/ha ([14]; 0.25 lb/A)
0%: % Phytotoxicity, Soybeans [1, 15] | % Phytotoxicity, Soybeans [1, 16] | % Phytotoxicity, Soybeans ([1]; 0.5 lb/A, Sand 0.7% O.M.) | % Phytotoxicity, Soybeans ([1]; 0.5 lb/A, Sand 1.8% O.M.) | % Phytotoxicity, Soybeans [1, 17] | % Phytotoxicity, Soybeans [1, 18] | % Phytotoxicity, Soybeans ([1]; 1.0 lb/A, Sand 0.7% O.M.) | % Phytotoxicity, Soybeans ([1]; 1.0 lb/A, Sand 1.8% O.M.) | % Phytotoxicity, Soybeans [1, 19] | % Phytotoxicity, Soybeans [1, 20] | % Phytotoxicity, Soybeans ([1]; 2.0 lb/A, Sand 0.7% O.M.) | % Phytotoxicity, Soybeans ([1]; 2.0 lb/A, Sand 1.8% O.M.) | % Crop Kill, Soybeans ([2]; 1.0 lb/A) | % Crop Kill, Soybeans ([2]; 2.0 lb/A) | % Phytotoxicity, Corn [5, 15] | % Phytotoxicity, Corn [5, 16] | % Phytotoxicity, Corn ([5]; 0.5 lb/A, Sand 0.7% O.M.) | % Phytotoxicity, Corn ([5]; 0.5 lb/A, Sand 1.8% O.M.) | % Phytotoxicity, Corn [5, 17] | % Phytotoxicity, Corn [5, 18] | % Phytotoxicity, Corn ([5]; 1.0 lb/A, Sand 0.7% O.M.) | % Phytotoxicity, Corn ([5]; 1.0 lb/A, Sand 1.8% O.M.) | % Phytotoxicity, Corn ([5]; 2.0 lb/A, Sand 0.7% O.M.) | % Phytotoxicity, Corn ([5]; 2.0 lb/A, Sand 1.8% O.M.) | % Crop Kill, Corn ([6]; 1.0 lb/A) | % Weed Control, Prickly Sida ([12]; 0.25 lb/A)
80%: % Control, Yellow Foxtail ([3]; 1.0 lb/A, Sand 1.8% O.M.) | mortality at 280.212 g/ha ([8]; 0.25 lb/A) | % Weed Control, Prickly Sida ([12]; 0.5 lb/A)
